# How the values were obtained:
# Assay type in all cases: ADME, organism-based
# [1] = AUC (0 to infinity) in rat at 1 mg/kg, iv; design: time infinity, dose 1 mg/kg, route intravenous; details: plasma
# [2] = Half life in rat at 1 mg/kg, iv; design: dose 1 mg/kg, route intravenous; details: in vivo
# [3] = Oral bioavailability in rat at 5 mg/kg, po; details: in vivo
# [4] = AUC (0 to infinity) in rat at 5 mg/kg, po; design: time infinity, dose 5 mg/kg, route oral; details: plasma
# [5] = Clearance in rat at 1 mg/kg, iv; design: dose 1 mg/kg, route intravenous; details: in vivo
structure (smiles),measurement,setting,value
CNC(=O)c1cccc(F)c1Nc1nc(Nc2ccc3c(c2)NC(=O)CCC3)ncc1Cl,AUC(0-inf),[1],1260 ng·h/mL
same,half-life,[2],42 min
same,bioavailability,[3],8%
same,AUC(0-inf),[4],592 ng·h/mL
same,clearance,[5],15 mL/min/kg
